US7894880B2, “Measurement of renal extraction fraction using contrast enhanced computed tomography” (The Board of Trustees of the Leland Stanford Junior …, priority 2003, dated 2011)
Values joined by “and” are separate entries in the source; they are usually repeats but may differ in a detail not shown here. Equal entries are not always repeated.

Experiment: Renal extraction fraction by contrast enhanced CT after iohexol injection (retrospective study)
Format: in vivo, adult patients
Excerpt: [formula] where CA is the concentration of a filtration marker in the systemic arterial blood entering the kidney, and CV is the corresponding concentration in the renal venous blood. Standard radiographic contrast agents, including iothalamate and iohexol, may be used as filtration markers since they are freely filtered by the kidney, and neither secreted nor reabsorbed. Assuming linear increase in CT number with concentration of contrast agent, CA will be proportional to the increase in CT number of the systemic arterial blood following contrast injection, or CTA-CTPRE, where CTPRE and CTA are the pre- and post- contrast CT numbers of the systemic arterial blood. Similarly, CTV will be proportional to CTV-CTPRE, where CTV is the post-contrast CT number of a renal vein. Substituting into equation [1] yields: […]
In a retrospective study, CT scans of 10 adult patients (mean age 58.1 years, 7 female) having no known renal disease, and one patient with unilateral renal obstruction were studied. All patients had precontrast scans followed by injection of 120 ml. of iohexol (Omnipaque 350, Amersham Health, Princeton, N.J.) at 2 ml/sec., and enhanced scans through the kidney vasculature, delayed for 3 to 5 minutes after the end of the contrast injection. CT section thickness varied from 2.5 mm to 5 mm. Pre- and post-contrast delayed images were evaluated using ROI measurements taken within the abdominal aorta in the region of the renal vessels, and within right and left renal veins. Multiple measurements, one from each of several axial scans, within each vessel were obtained, varying from 2 to 4 measurements for each renal vein, and 4-8 measurements for the abdominal aorta. Mean CT number values were subsequently computed for each vessel. EF values for the right and left kidneys in each subject were then computed for each patient using equation [2] above. Propagation of error was used to estimate the standard deviation in the computed EF values, as expressed in:
[formula] where σ^2CTA, σ^2CTV, and σ^2CTPRE are the variances in the mean values for each region.

[1] = 10 patients with no history of renal disease, weighted by the inverse of the variance
[2] = individual normal subjects (no known renal disease), one line per patient, 120 ml iohexol at 2 ml/sec, scans delayed 3 to 5 minutes after injection
[3] = patient with unilateral renal obstruction

CC(=O)N(CC(O)CO)c1c(I)c(C(=O)NCC(O)CO)c(I)c(C(=O)NCC(O)CO)c1I (stereo not drawn) [iohexol]
Left renal EF, weighted mean ± SD [1]: 12.3±1.3% | Right renal EF, weighted mean ± SD [1]: 12.6±1.0% | Left Renal EF (calculated extraction fraction ± s.d.) [2]: 7.7 ± 6.3% and 9.1 ± 1.5% and 7.8 ± 2.6% and 21.1 ± 1.7% and 22.2 ± 3.0% and 8.3 ± 1.9% and 17.7 ± 4.7% and 8 ± 3.2% and 7.7 ± 3.1% and 7.7 ± 5.3% | Right Renal EF (calculated extraction fraction ± s.d.) [2]: 8.3 ± 9.6% and 16.2 ± 11.6% and 7.6 ± 1.6% and 16.8 ± 3.4% and 16.7 ± 2.2% and 8 ± 5.4% and 16.2 ± 4.6% and 10.6 ± 4.5% and 18.8 ± 2.8% and 13.3 ± 3.1% | EF in the obstructed left kidney [3]: 9.7±4.0% | EF in the unobstructed right kidney [3]: 29.6±5.6%
